Results as given in US8551937B2, “Peptide having an extending action for half-life of object peptide in plasma” (priority 2008, dated 2013).
Where a SMILES comes first, the peptide text is derived from it.

Test: Motilin immunoreactivity concentration in plasma, half-life after intravenous administration (Example 8)
Settings: male, SD, rat, in vivo, iv, 10 nmol/kg
Method: The experiment was carried out using rats into which polyethylene tube (PE-50 manufactured by Clay Adams) was inserted into thigh artery under an anesthetized condition with Nembutal. As to a test system, male SD strain rats (Nippon Charles River) of 7 weeks age were used where one group comprised 3 rats. Human motilin or a derivative thereof in a dose of 10 nmol/kg was administered into tail vein of the rat and the blood before the administration and until 60 minutes after the administration was periodically collected by a polyethylene tube inserted into the thigh artery. To the collected blood were added EDTA (manufactured by Dojin Laboratories) and aprotinin (manufactured by Bayer) as a stabilizer and an anti-coagulant, respectively and the plasma was separated therefrom by centrifugal separation. Motilin immunoreactivity concentration in plasma was measured by a competitive radioimmunoassay (RIA) (FIG. 8). At that time, a rabbit polyclonal antibody (#870623) which specifically recognizes the amino acid numbers 1 to 12 of native motilin shown by SEQ ID No: 102 was used as an antibody and, as a labeled compound, ^125I-[Tyr^7] human motilin was used.

SMILES	half-life [min]
CC[C@H](C)[C@H](NC(=O)[C@@H]1CCCN1C(=O)[C@@H](NC(=O)[C@@H](N)Cc1ccccc1)C(C)C)C(=O)N[C@@H](Cc1ccccc1)C(=O)N[C@H](C(=O)N[C@@H](Cc1ccc(O)cc1)C(=O)NCC(=O)N[C@@H](CCC(=O)O)C(=O)N[C@@H](CC(C)C)C(=O)N[C@@H](CCC(N)=O)C(=O)N[C@@H](CCCNC(=N)N)C(=O)N[C@@H](CCCCN)C(=O)N[C@@H](CCC(=O)O)C(=O)N[C@@H](CO)C(=O)N[C@@H](CCCCN)C(=O)N[C@@H](CCCCN)C(=O)N1CCC[C@H]1C(=O)N1CCC[C@H]1C(=O)N[C@@H](C)C(=O)N[C@@H](CCCCN)C(=O)N[C@@H](CC(C)C)C(=O)N[C@@H](C)C(=O)N[C@@H](C)C(=O)N[C@@H](CC(C)C)C(=O)N[C@@H](CCCCN)C(=O)N[C@@H](C)C(=O)O)[C@@H](C)O [Chimeric motilin (XI) (MG-d12/14)] (H-FVPIFTYGELQRKESKKPPAKLAALKA-OH; N-terminus and C-terminus assumed)	10.3
CC[C@H](C)[C@H](NC(=O)[C@@H]1CCCN1C(=O)[C@@H](NC(=O)[C@@H](N)Cc1ccccc1)C(C)C)C(=O)N[C@@H](Cc1ccccc1)C(=O)N[C@H](C(=O)N[C@@H](Cc1ccc(O)cc1)C(=O)NCC(=O)N[C@@H](CCC(=O)O)C(=O)N[C@@H](CC(C)C)C(=O)N[C@@H](CCC(N)=O)C(=O)N[C@@H](CCCNC(=N)N)C(=O)N[C@H](C(=O)N[C@@H](CCC(N)=O)C(=O)N[C@@H](CCC(N)=O)C(=O)N[C@@H](CCCNC(=N)N)C(=O)N[C@@H](CCCCN)C(=O)N[C@@H](CCC(=O)O)C(=O)N[C@@H](CO)C(=O)NCC(=O)N[C@@H](CCCCN)C(=O)N[C@@H](CCCCN)C(=O)N1CCC[C@H]1C(=O)N1CCC[C@H]1C(=O)N[C@@H](C)C(=O)N[C@@H](CCCCN)C(=O)N[C@@H](CC(C)C)C(=O)N[C@@H](CCC(N)=O)C(=O)N1CCC[C@H]1C(=O)N[C@@H](CCCNC(=N)N)C(=O)O)C(C)C)[C@@H](C)O [Chimeric motilin (I)(MG-i19G)] (H-FVPIFTYGELQRVQQRKESGKKPPAKLQPR-OH; N-terminus and C-terminus assumed)	11.6
CC[C@H](C)[C@H](NC(=O)[C@@H]1CCCN1C(=O)[C@@H](NC(=O)[C@@H](N)Cc1ccccc1)C(C)C)C(=O)N[C@@H](Cc1ccccc1)C(=O)N[C@H](C(=O)N[C@@H](Cc1ccc(O)cc1)C(=O)NCC(=O)N[C@@H](CCC(=O)O)C(=O)N[C@@H](CC(C)C)C(=O)N[C@@H](CCC(N)=O)C(=O)N[C@@H](CCCNC(=N)N)C(=O)N[C@H](C(=O)N[C@@H](CCC(N)=O)C(=O)N[C@@H](CCC(N)=O)C(=O)N[C@@H](CCCCN)C(=O)N[C@@H](CCCCN)C(=O)N[C@@H](C)C(=O)N[C@@H](Cc1ccc(O)cc1)C(=O)N[C@@H](CO)C(=O)N1CCC[C@H]1C(=O)N[C@@H](CC(=O)O)C(=O)N[C@@H](CCCCN)C(=O)N[C@@H](CCC(=O)O)C(=O)N[C@@H](CCCNC(=N)N)C(=O)N[C@@H](CCCCN)C(=O)N1CCC[C@H]1C(=O)N1CCC[C@H]1C(=O)N[C@@H](C)C(=O)N[C@@H](CCCCN)C(=O)N[C@@H](CC(C)C)C(=O)N[C@@H](CCC(N)=O)C(=O)N1CCC[C@H]1C(=O)N[C@@H](CCCNC(=N)N)C(=O)O)C(C)C)[C@@H](C)O [Chimeric motilin (XIII)(MGP2)] (H-FVPIFTYGELQRVQQKKAYSPDKERKPPAKLQPR-OH; N-terminus and C-terminus assumed)	13.1
CC[C@H](C)[C@H](NC(=O)[C@@H]1CCCN1C(=O)[C@@H](NC(=O)[C@@H](N)Cc1ccccc1)C(C)C)C(=O)N[C@@H](Cc1ccccc1)C(=O)N[C@H](C(=O)N[C@@H](Cc1ccc(O)cc1)C(=O)NCC(=O)N[C@@H](CCC(=O)O)C(=O)N[C@@H](CC(C)C)C(=O)N[C@@H](CCC(N)=O)C(=O)N[C@@H](CCCNC(=N)N)C(=O)N[C@H](C(=O)N[C@@H](CCC(N)=O)C(=O)N[C@@H](CCC(N)=O)C(=O)N[C@@H](CCCNC(=N)N)C(=O)N[C@@H](CCCCN)C(=O)N[C@@H](CCC(=O)O)C(=O)N[C@@H](CC(C)C)C(=O)N[C@@H](CCCCN)C(=O)N[C@@H](CCCCN)C(=O)N1CCC[C@H]1C(=O)N1CCC[C@H]1C(=O)N[C@@H](C)C(=O)N[C@@H](CCCCN)C(=O)N[C@@H](CC(C)C)C(=O)N[C@@H](CCC(N)=O)C(=O)N1CCC[C@H]1C(=O)N[C@@H](CCCNC(=N)N)C(=O)O)C(C)C)[C@@H](C)O [Chimeric motilin (R)(MG-18S/L)] (H-FVPIFTYGELQRVQQRKELKKPPAKLQPR-OH; N-terminus and C-terminus assumed)	9.13
CC[C@H](C)[C@H](NC(=O)[C@@H]1CCCN1C(=O)[C@@H](NC(=O)[C@@H](N)Cc1ccccc1)C(C)C)C(=O)N[C@@H](Cc1ccccc1)C(=O)N[C@H](C(=O)N[C@@H](Cc1ccc(O)cc1)C(=O)NCC(=O)N[C@@H](CCC(=O)O)C(=O)N[C@@H](CC(C)C)C(=O)N[C@@H](CCC(N)=O)C(=O)N[C@@H](CCCNC(=N)N)C(=O)N[C@H](C(=O)N[C@@H](CCC(N)=O)C(=O)N[C@@H](CCC(N)=O)C(=O)N[C@@H](CCCNC(=N)N)C(=O)N[C@@H](CCCCN)C(=O)NCC(=O)NCC(=O)N[C@@H](CCC(=O)O)C(=O)N[C@@H](CO)C(=O)N[C@@H](CCCCN)C(=O)N[C@@H](CCCCN)C(=O)N1CCC[C@H]1C(=O)N1CCC[C@H]1C(=O)N[C@@H](C)C(=O)N[C@@H](CCCCN)C(=O)N[C@@H](CC(C)C)C(=O)N[C@@H](CCC(N)=O)C(=O)N1CCC[C@H]1C(=O)N[C@@H](CCCNC(=N)N)C(=O)O)C(C)C)[C@@H](C)O [Chimeric motilin (II)(MG-i17G2)] (H-FVPIFTYGELQRVQQRKGGESKKPPAKLQPR-OH; N-terminus and C-terminus assumed)	11.5

Same assay, conditions: rat, in vivo, iv, 10 nmol/kg

SMILES	half-life [min]
CC[C@H](C)[C@H](NC(=O)[C@@H]1CCCN1C(=O)[C@@H](NC(=O)[C@@H](N)Cc1ccccc1)C(C)C)C(=O)N[C@@H](Cc1ccccc1)C(=O)N[C@H](C(=O)N[C@@H](Cc1ccc(O)cc1)C(=O)NCC(=O)N[C@@H](CCC(=O)O)C(=O)N[C@@H](CC(C)C)C(=O)N[C@@H](CCC(N)=O)C(=O)N[C@@H](CCCNC(=N)N)C(=O)N[C@H](C(=O)N[C@@H](CCC(N)=O)C(=O)N[C@@H](CCC(N)=O)C(=O)N[C@@H](CCCNC(=N)N)C(=O)N[C@@H](CCCCN)C(=O)N[C@@H](CCC(=O)O)C(=O)N[C@@H](CO)C(=O)N[C@@H](CCCCN)C(=O)N[C@@H](CCCCN)C(=O)N[C@@H](C)C(=O)N[C@@H](CCCCN)C(=O)N[C@@H](CC(C)C)C(=O)N[C@@H](CCC(N)=O)C(=O)N1CCC[C@H]1C(=O)N[C@@H](CCCNC(=N)N)C(=O)O)C(C)C)[C@@H](C)O [Chimeric motilin (IV)(MG-dPP)] (H-FVPIFTYGELQRVQQRKESKKAKLQPR-OH; N-terminus and C-terminus assumed)	7.73
